# Measured values: patent US20110230424A1, “OPHTHALMIC SOLUTIONS, INCLUDING CONTACT LENS CARE AND EYE DROPS COMPRISING CARNOSINE, PREFERABLY IN COMBINATION WITH DEXPANTHENOL AND/OR HYALURONIC ACID” (priority 2008, published 2011)
# Experiments:
# [1] = phonophoresis or subconjunctival injection, cited from earlier work
# [2] = Stability of carnosine in contact lens care solution; type: physicochemical; details: under circumstances; carnosine utilized by bacteria and/or fungi in the solution
SMILES,time within which carnosine accumulates in the aqueous humour after topical administration ([1]; 1% N-acetylcarnosine added to the eye),effectiveness of carnosine administration in itself to the eye ([1]; quickly metabolised by carnosinase in the eye),stability of carnosine present in the contact lens care solution [2]
"CC(=O)NCCC(=O)N[C@@H](Cc1cnc[nH]1)C(=O)O [N-acetylcarnosine, reference compound]",15 to 30 min,,
"NCCC(=O)N[C@@H](Cc1cnc[nH]1)C(=O)O [carnosine, (2S)-2-[(3-Amino-1-oxopropyl)amino]-3-(3H-imidazol-4-yl)propanoic acid]",,ineffective,less stable than expected
